Assay results from article PMC12455397 (Angewandte Chemie (International Ed. in English), 2025).

What was measured:
[1] = biological target: human Keap1 Kelch (Homo sapiens, UniProt Q14145); test: Fluorescence polarization (FP) competition assay with Cy5-Nrf2 peptide probe; settings: for Ki: ≥3 individual measurements; for fold improvement in binding affinity (FP) over parent analogue: 7 vs 4, 12 vs 7, 13 vs 12; for ligand efficiency (LE): from FP Ki
[2] = tested on: Nrf2-regulated genes (AKR1B10, NQO1, TRXR1, HO-1) in HaCaT human keratinocytes; test: HaCaT cell assay, Western Blotting of Nrf2-regulated proteins; assay type: cell-based; settings: HaCaT, 10 µM, 24 h
[3] = FP (Ki/nM), Table S2, mean ± SEM, NA: not active (measured up to 4 mM)
[4] = Ki (FP), mean, text and figures

Chain of human Keap1 Kelch (Q14145 321-609): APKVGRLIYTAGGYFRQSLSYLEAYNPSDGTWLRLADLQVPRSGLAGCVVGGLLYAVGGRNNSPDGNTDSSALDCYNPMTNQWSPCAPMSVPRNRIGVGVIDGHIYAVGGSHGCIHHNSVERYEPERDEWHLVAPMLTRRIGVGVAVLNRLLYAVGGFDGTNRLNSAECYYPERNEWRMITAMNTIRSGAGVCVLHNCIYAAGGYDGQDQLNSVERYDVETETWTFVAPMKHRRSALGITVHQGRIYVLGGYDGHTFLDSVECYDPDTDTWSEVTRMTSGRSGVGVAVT

Row | SMILES | Ki [1, 3] | Ki [1, 4] | further results
1 | O=C(O)CC(c1cccc(Cl)c1)c1ccc2ccc(OCC(=O)NC3CCCCCC3)cc2c1 (stereo not drawn) [Compound 16] | 53.9 ± 6.1 nM | 54 nM | –
2 | Cc1c(Cl)cccc1C(CC(=O)O)c1ccc2ccc(OCC(=O)NC3CCCCCC3)cc2c1 (stereo not drawn) [Compound 18] | 59.5 ± 8.4 nM | 60 nM | –
3 | Cc1cc2occc2cc1C(CC(=O)O)c1ccc2ccc(OCC(=O)NC3CCCCCC3)cc2c1 (stereo not drawn) [Compound 26] | 15.6 ± 2.6 nM | 16 nM | –
4 | O=C(O)CC(c1ccc2c(c1)OC(F)(F)O2)c1ccc2ccc(OCC(=O)NC3CCCCCC3)cc2c1 (stereo not drawn) [Compound 22] | 33.8 ± 4.7 nM | 34 nM | –
5 | Cc1cc2c(cc1C(CC(=O)O)c1ccc3ccc(OCC(=O)NC4CCCCC4)cc3c1)OC(F)(F)O2 (stereo not drawn) [Compound 37] | – | 7.1 nM | –
6 | Cc1cc2c(cc1C(CC(=O)O)c1ccc3ccc(OCC(=O)NC4C=CCCC4)cc3c1)OC(F)(F)O2 (stereo not drawn) [Compound 47] | 16.1 ± 3.8 nM | 16 nM | –
7 | O=C(O)CC(c1ccc2c(c1)CCO2)c1ccc2ccc(OCC(=O)NC3CCCCCC3)cc2c1 (stereo not drawn) [Compound 20] | 35.5 ± 3.4 nM | 36 nM | –
8 | Cc1cc2c(cc1C(CC(=O)O)c1ccc3ccc(OCC(=O)NC4CCCCCC4)cc3c1)OC(F)(F)O2 (stereo not drawn) [Compound 27] | 14.1 ± 2.4 nM | 14 nM | –
9 | O=C(O)CCc1ccc2ccc(OCC(=O)NC3CCCCC3)cc2c1 [Compound 4] | 15500 ± 1300 nM | – | Ki ([1]; Ki (FP), mean): 16000 nM; ligand efficiency (LE) [1]: 0.25
10 | O=C(O)CC(c1ccc2c(c1)CCO2)c1ccc2ccc(OCC(=O)NC3CCCCC3)cc2c1 (stereo not drawn) [Compound 30] | 82.1 ± 7.9 nM | 82 nM | –
11 | Cc1cc(C)c(NC(=O)COc2ccc3ccc(CCC(=O)O)cc3c2)c(C)c1 [Compound 10] | 21300 ± 710 nM | – | Ki ([1]; Ki (FP), mean): 21000 nM
12 | COc1ccc(NC(=O)COc2ccc3ccc(CCC(=O)O)cc3c2)cc1 [Compound 9] | 69600 ± 9400 nM | – | Ki ([1]; Ki (FP), mean): 70000 nM
13 | O=C(O)CC(c1ccc2c(c1)OCO2)c1ccc2ccc(OCC(=O)NC3CCCCCC3)cc2c1 (stereo not drawn) [Compound 19] | 23.2 ± 1.3 nM | 23 nM | ligand efficiency (LE) [1]: 0.29
14 | Cc1cc2occc2cc1C(CC(=O)O)c1ccc2ccc(OCC(=O)NC3CCCCC3)cc2c1 (stereo not drawn) [Compound 36] | 24.4 ± 0.4 nM | 24 nM | –
15 | O=C(O)CC(c1ccc2ccc(OCC(=O)NC3CCCCCC3)cc2c1)c1ccc2occc2c1 (stereo not drawn) [Compound 21] | 38.3 ± 1.6 nM | 38 nM | –
16 | O=C(O)CC(c1ccc2c(c1)OCO2)c1ccc2ccc(OCC(=O)NC3C=CCCC3)cc2c1 (stereo not drawn) [Compound 39] | 24.5 ± 1.7 nM | 25 nM | –
17 | O=C(O)CCc1cccc(OCC(=O)NC2CCCCC2)c1 [Compound 2] | – | – | activity in FP competition assay [1]: inactive
18 | O=C(O)CCc1ccc2ccc(OCC(=O)NC3CCOCC3)cc2c1 [Compound 5] | 38300 ± 2900 nM | – | Ki ([1]; Ki (FP), mean): 38000 nM
19 | O=C(O)CC(c1ccc2ccc(OCC(=O)NC3CCCCC3)cc2c1)c1ccc2occc2c1 (stereo not drawn) [Compound 31] | 68.2 ± 12 nM | 68 nM | –
20 | COc1ccc(C(CC(=O)O)c2ccc3ccc(OCC(=O)NC4CCCCCC4)cc3c2)c(C)c1 (stereo not drawn) [Compound 17] | 23.6 ± 2.2 nM | 24 nM | –
21 | O=C(O)CC(c1ccc(Cl)cc1)c1ccc2ccc(OCC(=O)NC3CCCCCC3)cc2c1 (stereo not drawn) [Compound 15] | 294 ± 25 nM | 290 nM | –
22 | O=C(O)CC(c1ccc2c(c1)OC(F)(F)O2)c1ccc2ccc(OCC(=O)NC3CCCCC3)cc2c1 (stereo not drawn) [Compound 32] | 51.4 ± 4.8 nM | 51 nM | –
23 | O=C(O)CC(c1ccc2c(c1)OCCO2)c1ccc2ccc(OCC(=O)NC3CCCCC3)cc2c1 (stereo not drawn) [Compound 33] | 29.3 ± 1.7 nM | 29 nM | –
24 | O=C(O)CC(c1ccc2c(c1)OCO2)c1ccc2ccc(OCC(=O)NC3CCCCC3)cc2c1 (stereo not drawn) [Compound 29] | 57.1 ± 4.8 nM | 57 nM | –

More lines, main results first:

Row | Ki [1, 3] | Ki [1, 4] | SMILES | further results
25 | 268000 ± 29000 nM | – | O=C(O)CCc1ccc2ccc(OCC(=O)NN3CCOCC3)cc2c1 [Compound 6] | Ki ([1]; Ki (FP), mean): 270000 nM
26 | 6560 ± 580 nM | – | O=C(O)CCc1ccc2ccc(OCC(=O)NC3CCCCCC3)cc2c1 [Compound 7] | fold improvement in binding affinity (FP) over parent analogue [1]: 2 fold; Ki ([1]; Ki (FP), mean): 6600 nM; ligand efficiency (LE) [1]: 0.26
27 | 18.3 ± 2.4 nM | 18 nM | Cc1cc2c(cc1C(CC(=O)O)c1ccc3ccc(OCC(=O)NC4C=CCCC4)cc3c1)CCO2 (stereo not drawn) [Compound 45] | –
28 | 18.1 ± 5.9 nM | 18 nM | Cc1cc2c(cc1C(CC(=O)O)c1ccc3ccc(OCC(=O)NC4CCCCC4)cc3c1)OCO2 (stereo not drawn) [Compound 34] | –
29 | 29.9 ± 2.2 nM | 30 nM | O=C(O)CC(c1ccc2c(c1)OC(F)(F)O2)c1ccc2ccc(OCC(=O)NC3C=CCCC3)cc2c1 (stereo not drawn) [Compound 42] | –
30 | 17.8 ± 3.4 nM | 18 nM | Cc1cc2occc2cc1C(CC(=O)O)c1ccc2ccc(OCC(=O)NC3C=CCCC3)cc2c1 (stereo not drawn) [Compound 46] | –
31 | 20.3 ± 2.1 nM | 20 nM | O=C(O)CC(c1ccc2c(c1)OCCO2)c1ccc2ccc(OCC(=O)NC3C=CCCC3)cc2c1 (stereo not drawn) [Compound 43] | –
32 | 1060 ± 99 nM | – | O=C(O)CC(c1ccccc1)c1ccc2ccc(OCC(=O)NC3CCCCCC3)cc2c1 (stereo not drawn) [Compound 12] | fold improvement in binding affinity (FP) over parent analogue [1]: 6 fold; Ki ([1]; Ki (FP), mean): 1100 nM; ligand efficiency (LE) [1]: 0.25
33 | 21.1 ± 1.5 nM | 21 nM | O=C(O)CC(c1ccc2ccc(OCC(=O)NC3C=CCCC3)cc2c1)c1ccc2occc2c1 (stereo not drawn) [Compound 41] | –
34 | 284 ± 31 nM | 280 nM | COc1cccc(C(CC(=O)O)c2ccc3ccc(OCC(=O)NC4CCCCCC4)cc3c2)c1 (stereo not drawn) [Compound 14] | –
35 | 10200 ± 2400 nM | – | O=C(O)CCc1ccc2ccc(OCC(=O)Nc3ccccc3)cc2c1 [Compound 8] | Ki ([1]; Ki (FP), mean): 10000 nM
36 | 31.6 ± 2.6 nM | 32 nM | COc1ccc(C(CC(=O)O)c2ccc3ccc(OCC(=O)NC4CCCCCC4)cc3c2)cc1 (stereo not drawn) [Compound 13] | fold improvement in binding affinity (FP) over parent analogue [1]: 34 fold; ligand efficiency (LE) [1]: 0.29
37 | 196000 ± 24000 nM | – | Cc1cc(C)c(C)c(NC(=O)COc2ccc3ccc(CCC(=O)O)cc3c2)c1C [Compound 11] | Ki ([1]; Ki (FP), mean): 200000 nM
38 | – | 3.9 nM | Cc1cc2c(cc1C(CC(=O)O)c1ccc3ccc(OCC(=O)NC4C=CCCC4)cc3c1)OCO2 (stereo not drawn) [Compound 44] | protein levels of Nrf2-regulated genes by WB [2]: strong bands in WB for all tested proteins
39 | 14.9 ± 0.8 nM | 15 nM | Cc1cc2c(cc1C(CC(=O)O)c1ccc3ccc(OCC(=O)NC4CCCCC4)cc3c1)OCCO2 (stereo not drawn) [Compound 38] | –
40 | 18.8 ± 1.7 nM | 19 nM | Cc1cc2c(cc1C(CC(=O)O)c1ccc3ccc(OCC(=O)NC4CCCCCC4)cc3c1)CCO2 (stereo not drawn) [Compound 25] | protein levels of Nrf2-regulated genes by WB [2]: strong bands in WB for all tested proteins
41 | 32.4 ± 1.3 nM | 32 nM | Cc1cc2c(cc1C(CC(=O)O)c1ccc3ccc(OCC(=O)NC4CCCCC4)cc3c1)CCO2 (stereo not drawn) [Compound 35] | –
42 | 19.2 ± 2.4 nM | 19 nM | Cc1cc2c(cc1C(CC(=O)O)c1ccc3ccc(OCC(=O)NC4C=CCCC4)cc3c1)OCCO2 (stereo not drawn) [Compound 48] | protein levels of Nrf2-regulated genes by WB [2]: strong bands in WB for all tested proteins
43 | 26.7 ± 4.2 nM | 27 nM | O=C(O)CC(c1ccc2c(c1)CCO2)c1ccc2ccc(OCC(=O)NC3C=CCCC3)cc2c1 (stereo not drawn) [Compound 40] | protein levels of Nrf2-regulated genes by WB [2]: strong bands in WB for all tested proteins
44 | – | 15 nM | O=C(O)CC(c1ccc2c(c1)OCCO2)c1ccc2ccc(OCC(=O)NC3CCCCCC3)cc2c1 (stereo not drawn) [Compound 23] | –
45 | 162000 ± 22000 nM | – | O=C(COc1cccc(N2CCC(C(=O)O)CC2)c1)NC1CCCCC1 [Compound 3] | Ki ([1]; Ki (FP), mean): 160000 nM; ligand efficiency (LE) [1]: 0.20
